# Assay results taken from patent US20250288206A1, “SYSTEMS AND METHODS FOR MONITORING OF DELIVERY OF LABEL-FREE DRUGS” (City University of Hong Kong, priority 2024, published 2025).
# Experiments:
# [1] = Release study of BA-DMSO liposome by dialysis (CEST MRI and UV 257 nm); format: physicochemical; settings: at the end of dialysis, BA in 10% DMSO in liposomes
# Protocol: The size, polydispersity index (PDI), and surface charge of DMSO liposome were measured by dynamic light scattering using Zetasizer (Malvern Instruments, UK). Liposome concentration was measured by light scattering using NanoSight (Malvern Instruments, UK). To study the release property, dialysis cassettes with molecular weight cut-off of 10 kDa (Thermo Fisher, Waltham, USA) were used. The cassettes were first hydrated in HBS for 2 minutes. 1 mL of liposome sample was then loaded into the membrane chamber of two separate cassettes and excess air was removed by gentle squeezing of the membrane. The loaded cassettes were submerged into two beakers with 50 mL HBS at 37° C. At 15 min, 30 min, 1 hour, and 3 hour, 200 μL of dialyzed liposomes were taken out for CEST MRI measurement. In the other dialysis cassette, 1 mL of dialysis medium were taken out from the cassette at each timepoint for UV spectrometric measurement at an absorbance of 257 nm, and 1 mL of fresh medium was added after each time the medium was taken out. The retention of drug within liposome before and after dialysis was determined by measuring the UV absorbance of the supernatant obtained by treating liposome solutions with 10% Triton-X solution, sonicating at 42° C. for 1 hour, and centrifuging at 10,000 rpm. Concentration of BA was determined from BA standard curve.
# [2] = Bloch-McConnell fitting of DMSO CEST peak; format: physicochemical; settings: 10% v/v DMSO
# Protocol: During the course leading to the present invention, a series of internal and external factors that can influence DMSO's CEST effect were examined. DMSO's concentration linearly correlated with observed signal magnitude, while the change in signal when varying pH from pH 5.5 to pH 8 was less obvious. As temperature went down from 40° C. to 20° C., DMSO's CEST peak gradually moved upfield (please see FIGS. 1F to 1G). It appears that intermolecular interaction between DMSO and water was dependent on temperature. […] Exchange rate and was estimated with Bloch-McConnell fitting. Input of solute concentration was 1.41 M (molar concentration of 10% v/v DMSO) multiplied by a factor of 1.4, which was an estimation of concentration of “structured” water that formed by intermolecular interaction with DMSO and thereby served as relaying sites.
Compound,BA content released [1],estimated exchange rate ([2]; Bloch-McConnell fitting),"Kex ([2]; fitted value, B0 3T, B1 1.2 μT, Tsat 4 s) [s⁻¹]"
"O=C1CC(=O)NC(=O)N1 [BA, barbituric acid]",around 80%,,
"C[S+](C)[O-] [DMSO, dimethyl sulfoxide]",,around 2 Hz,2.1341
